Non-standard residues stand in square brackets, D forms with d. Residues, ends and D or L forms follow the SMILES beside them. *: point of attachment. Dip = N[C@H](C(=O)O)C(c1ccccc1)c1ccccc1; Cha = N[C@@H](CC1CCCCC1)C(=O)O; NHBn = c1ccc(CN*)cc1; X4 = C1CCC(CCN*)CC1
system: Hepatitis C virus; assay: Antiviral activity against Hepatitis C virus; format: functional, organism-based, Hepacivirus hominis; details: Hepatitis C virus

Question: `CC(=O)N[C@@H](CC(=O)O)C(=O)N[C@@H](CCC(=O)O)C(=O)N[C@H](C(=O)N[C@@H](CCC(=O)O)C(=O)N[C@@H](CC1CCCCC1)C(=O)N[C@@H](CS)C(=O)NCCC1CCCCC1)C(c1ccccc1)c1ccccc1` (Ac-DE[Dip]E[Cha]C-X4) was tested. Which IC50 did it give?
Answer: 1.54 µM

Question: `Cc1cn([C@@H]2O[C@H](CO)[C@@H](O)[C@@]2(C)O)c2ncnc(N)c12` was tested. Which IC50 did it give?
Answer: 34 µM

Question: With `CC(=O)N[C@@H](CC(=O)O)C(=O)N[C@@H](CCC(=O)O)C(=O)N[C@H](C(=O)N[C@@H](CCC(=O)O)C(=O)N[C@@H](CC1CCCCC1)C(=O)N[C@@H](CS)C(=O)NCc1ccccc1)C(c1ccccc1)c1ccccc1` (Ac-DE[Dip]E[Cha]C-NHBn) as the molecule, how does the IC50 read?
Answer: 0.25 µM

Question: With `CC(C)COC(=O)N[C@@H](CCC(=O)O)C(=O)N[C@@H](CC(C)C)C(=O)N[C@@H](CS)C(=O)NCCc1ccccc1` as the molecule, how does the IC50 read?
Answer: 19 µM

Question: How did the IC50 turn out when `CCCC1(CC(=O)O)OCCc2c1[nH]c1c(C)cc(F)c(C#N)c21` (stereo not given) was run?
Answer: 0.12 µM

Question: Which IC50 does the source give for `Cc1ccc(C(=O)CC(=O)C(=O)O)cc1` here?
Answer: 50 µM

Question: How did the IC50 turn out when `CCCCOc1ccccc1C(=O)CC(=O)C(=O)O` was run?
Answer: 10 µM

Question: For `COc1ccc2c(O[C@@H]3C[C@H]4C(=O)N[C@]5(C(=O)O)C[C@H]5/C=C\CCCCC[C@H](NC(=O)OC(C)(C)C)C(=O)N4C3)cc(-c3csc(NC(C)=O)n3)nc2c1`, which IC50 is on record?
Answer: 0.0048 µM

Question: `CC(C)(C)c1ccc(C(=O)CC(=O)C(=O)O)cc1` was tested. Which IC50 did it give?
Answer: 50 µM

system: Human immunodeficiency virus 1; assay: Antiviral activity against HIV1; format: functional, organism-based; details: not given

Question: `O=C(c1cc(Cc2ccccc2)ccn1)c1ccc2cccnc2c1O` was tested. Which IC50 did it give?
Answer: 0.05 µM

Question: For `CC(=O)c1ccc2[nH]c(C(N)=O)c(S(=O)(=O)c3cc(C)cc(C)c3)c2c1`, which IC50 is on record?
Answer: 0.015 µM

Question: Which IC50 does the source give for `CCCCOC(=O)c1cc2c([nH]c3ccccc32)c(-c2ccc3c(n2)C(=O)C(NC(=O)CCC)=CC3=O)n1` [LAV12] here?
Answer: 5.8 µM

Question: With `C=C(C)[C@@H]1CC[C@]2(C(=O)NCCC(=O)N[C@@H](CC(C)C)C(=O)O)CC[C@]3(C)[C@H](CC[C@@H]4[C@@]5(C)CC[C@H](O)C(C)(C)[C@@H]5CC[C@]43C)[C@@H]12` as the molecule, how does the IC50 read?
Answer: 39 µM

Question: With `Nc1ncnc2c1ncn2[C@@H]1O[C@H](CO)C=C1F` as the molecule, how does the IC50 read?
Answer: 0.44 µM

Question: How did the IC50 turn out when `O=C(O)c1ccc2ccc(/C=C/c3cc(O)cc(/C=C/c4ccc5ccc(C(=O)O)c(O)c5n4)c3)nc2c1O` was run?
Answer: 100 µM

Question: For `Nc1ncnc2c1ncn2C1C=CC(OCP(=O)(O)OP(=O)(O)OP(=O)(O)OP(=O)(O)COC2C=CC(n3cnc4c(N)ncnc43)C2)C1` (stereo not given), which IC50 is on record?
Answer: 2 µM

Question: For `Cc1cc(=O)oc2c3c(c(CO)cc12)OC(C)(C)[C@H](OC(=O)[C@@]12CC[C@](C)(C(=O)O1)C2(C)C)[C@@H]3OC(=O)[C@@]12CC[C@](C)(C(=O)O1)C2(C)C`, which IC50 is on record?
Answer: 15 µM

Question: With `CCO/N=C(\c1ccc(Br)cc1)C1CCN(C2(C)CCN(C(=O)c3c(C)cc(C)nc3O)CC2)CC1` as the molecule, how does the IC50 read?
Answer: 0.0064 µM

Question: For `Cc1cn([C@H]2C=C(F)[C@H](CO)O2)c(=O)nc1O`, which IC50 is on record?
Answer: 100 µM

Question: For `Nc1ccn([C@H]2CC(F)(F)[C@H](CO)O2)c(=O)n1`, which IC50 is on record?
Answer: 100 µM

Question: `OC[C@@H]1C=C(F)[C@@H](n2cnc3c(O)ncnc32)O1` was tested. Which IC50 did it give?
Answer: 100 µM

Question: For `Nc1nc2c(ncn2C2C=CC(OCP(=O)(O)OP(=O)(O)C(F)(F)P(=O)(O)O)C2)c(=O)[nH]1` (stereo not given), which IC50 is on record?
Answer: 25 µM

Question: With `Nc1nc(=O)n([C@@H]2C=C(F)[C@H](CO)O2)cc1F` as the molecule, how does the IC50 read?
Answer: 0.018 µM

Question: Which IC50 does the source give for `O=c1nc(O)ccn1[C@@H]1S[C@H](CO)C=C1F` here?
Answer: 100 µM

Question: `Cc1cc(/C=C/C#N)cc(C)c1Oc1ccnc(Nc2ccc(C#N)cc2)n1` was tested. Which IC50 did it give?
Answer: 0.001 µM

Question: For `O=c1nc(O)ccn1[C@H]1CC(F)(F)[C@H](CO)O1`, which IC50 is on record?
Answer: 100 µM

Question: How did the IC50 turn out when `O=C(O)/C(O)=C/C(=O)c1c[nH]c2ccccc12` was run?
Answer: 1.43 µM

Question: How did the IC50 turn out when `NC(=O)c1cc2ccc(Cl)cc2n1S(=O)(=O)c1ccccc1` was run?
Answer: 66 µM

Question: With `Cc1cc(C)nc(N2C(=O)CSC2c2c(Cl)cccc2Cl)c1` (stereo not given) as the molecule, how does the IC50 read?
Answer: 0.09 µM

Question: How did the IC50 turn out when `Cc1cn([C@@H]2C=C(F)[C@H](CO)O2)c(=O)nc1O` was run?
Answer: 100 µM

Question: How did the IC50 turn out when `CCn1c(C(=O)CC(=O)C(=O)OC)cc2ccccc21` was run?
Answer: 60 µM

Question: How did the IC50 turn out when `Cc1cc(S(N)(=O)=O)ccc1NC(=O)COc1ccc(Cl)cc1C(=O)c1cc(F)cc(C(F)(F)F)c1` was run?
Answer: 0.004 µM

Question: With `Nc1nc(Cl)c2ncn([C@@H]3O[C@H](CO)C=C3F)c2n1` as the molecule, how does the IC50 read?
Answer: 4.3 µM

Question: Which IC50 does the source give for `Nc1nc(O)c2ncn([C@H]3CC(F)(F)[C@H](CO)O3)c2n1` here?
Answer: 100 µM

Question: `Cc1cc(=O)oc2c3c(c(CBr)cc12)OC(C)(C)[C@H](OC(=O)[C@@]12CC[C@](C)(C(=O)O1)C2(C)C)[C@@H]3OC(=O)[C@@]12CC[C@](C)(C(=O)O1)C2(C)C` was tested. Which IC50 did it give?
Answer: 13.7 µM

Question: With `Nc1nc(O)c2ncn([C@H]3C=C(F)[C@H](CO)O3)c2n1` as the molecule, how does the IC50 read?
Answer: 100 µM

Question: How did the IC50 turn out when `Cc1cc(/C=C/C#N)ccc1Oc1ccnc(Nc2ccc(C#N)cc2)n1` was run?
Answer: 0.00063 µM

Question: `O=C(O)C(=O)CC(=O)c1cccc(Cc2ccccc2)c1` was tested. Which IC50 did it give?
Answer: 0.1 µM

Question: `COC(=O)C(=O)CC(=O)c1cc2ccccc2n1C` was tested. Which IC50 did it give?
Answer: 106 µM

Question: Which IC50 does the source give for `O=C(O)c1ccc2ccc(/C=C/c3ccco3)nc2c1O` here?
Answer: 100 µM

Question: Which IC50 does the source give for `Cc1ccc(S(=O)(=O)c2c(C(=O)NN)[nH]c3ccc(Cl)cc23)cc1` here?
Answer: 0.05 µM

Question: Which IC50 does the source give for `Nc1nc2c(ncn2C2C=CC(OCP(=O)(O)OP(=O)(O)C(F)(F)P(=O)(O)OP(=O)(O)COC3C=CC(n4cnc5c(N)ncnc54)C3)C2)c(=O)[nH]1` (stereo not given) here?
Answer: 15 µM

Question: How did the IC50 turn out when `Nc1nc(F)nc2c1ncn2[C@H]1S[C@@H](CO)C=C1F` was run?
Answer: 11.5 µM

Question: With `Nc1nc(O)c2ncn([C@@H]3C=C(F)[C@H](CO)O3)c2n1` as the molecule, how does the IC50 read?
Answer: 38.5 µM

Question: `O=C(O)C(=C\c1ccc(O)c(O)c1)/C(=C\c1ccc(O)c(O)c1)C(=O)O` was tested. Which IC50 did it give?
Answer: 2.19 µM

Reference: ChEMBL document CHEMBL1136837, “Unified QSAR approach to antimicrobials. 4. Multi-target QSAR modeling and comparative multi-distance study of the giant components of antiviral drug-drug complex networks” (Bioorg Med Chem, 2009)
